The numbers were not newly measured in patent US20220273802A1, “METHODS FOR IMPROVED DELIVERY OF AMINOTHIOLS, DIMERS OF AMINOTHIOLS, AND HETERODIMERS COMPOSED OF AMINOTHIOLS” (THE BURLINGTON HC RESEARCH GROUP, INC., priority 2012, published 2022), which cites them from elsewhere.

One data set deals with mouse L cells. Particulars: for radioprotective effect upon mouse L cells in culture: compound alone, without dephosphorylation.
A further data set deals with V79 cells. The following applies: for activity if present outside of V79 cells: compound present outside of cells.
Data set [1] deals with three species of adenovirus.
A further data set has as its system SIV. Particulars: later studies.

As to `NCCCNCCSP(=O)(O)O` [Amifostine], the “radioprotective effect upon mouse L cells in culture” value with mouse L cells was “no radioprotective effect”. Further, in the data set with mouse L cells (incubated with mouse liver homogenate (active alkaline phosphatase)), the radioprotective activity result was “radioprotective activity was observed”. The “activity if present outside of V79 cells” value in the data set on V79 cells is listed as “did not show evidence of activity”.
Consider `NCCCNCCSSCC(N)C(=O)O` (stereo not drawn) [WR-1065-Cys], for which the “activity if present outside of V79 cells” value in the data set on V79 cells is “did not show evidence of activity”.
`NCCCNCCS` [WR-1065]: the “antiviral efficacy against HIV” value in the data set on HIV is given as “exhibits antiviral efficacy”. Besides, the “antiviral efficacy against influenza virus A and B” value in the data set on influenza virus A and B is on record as “exhibits antiviral efficacy”. The “antiviral efficacy against three species of adenovirus” value in data set [1] was “exhibits antiviral efficacy”. Moreover, the “efficacy against SIV” value in the data set on SIV is recorded as “demonstrated efficacy”. In the data set with mouse L cells, the “radioprotective effect upon mouse L cells in culture” value is listed as “Activity also was observed”. Moreover, in the data set with V79 cells, the “activity if present outside of V79 cells” value is listed as “did not show evidence of activity”. Further, the protection against gamma-radiation entry with V79 cells (correlated with intracellular levels) is listed as “significant protection”.
Regarding `NCCCNCCSSCCNCCCN` [WR-33278], the “activity if present outside of V79 cells” value in the data set on V79 cells was “did not show evidence of activity”.
